# BindingDB's records for patent US8633204 (Pfizer, 2014)
# Target: Phosphatidylinositol 4,5-bisphosphate 3-kinase catalytic subunit alpha isoform (Mus musculus, UniProt P42337)
# Test: Biochemical Assay
# Settings: pH 7.4; 25 °C
# Experimental: Compounds of the present invention were evaluated for potency against PI3-Kα using an in vitro kinase assay. PI3-Kα activity is measured in vitro by determining the level of phosphorylation of the substrate PI(4,5)P2. The formation of product PI(3,4,5)P3 is monitored by binding to the Grip1 PH domain in a ligand displacement fluorescence polarization (FP) assay, in which the TAMRA-labeled PI(3,4,5)P3 complexed with Grip1 PH domain is displaced by PI(3,4,5)P3 formed in the PI3-Kα reaction resulting in a decrease in FP signal.
# Chain of Phosphatidylinositol 4,5-bisphosphate 3-kinase catalytic subunit alpha isoform (P42337 whole entry, canonical isoform): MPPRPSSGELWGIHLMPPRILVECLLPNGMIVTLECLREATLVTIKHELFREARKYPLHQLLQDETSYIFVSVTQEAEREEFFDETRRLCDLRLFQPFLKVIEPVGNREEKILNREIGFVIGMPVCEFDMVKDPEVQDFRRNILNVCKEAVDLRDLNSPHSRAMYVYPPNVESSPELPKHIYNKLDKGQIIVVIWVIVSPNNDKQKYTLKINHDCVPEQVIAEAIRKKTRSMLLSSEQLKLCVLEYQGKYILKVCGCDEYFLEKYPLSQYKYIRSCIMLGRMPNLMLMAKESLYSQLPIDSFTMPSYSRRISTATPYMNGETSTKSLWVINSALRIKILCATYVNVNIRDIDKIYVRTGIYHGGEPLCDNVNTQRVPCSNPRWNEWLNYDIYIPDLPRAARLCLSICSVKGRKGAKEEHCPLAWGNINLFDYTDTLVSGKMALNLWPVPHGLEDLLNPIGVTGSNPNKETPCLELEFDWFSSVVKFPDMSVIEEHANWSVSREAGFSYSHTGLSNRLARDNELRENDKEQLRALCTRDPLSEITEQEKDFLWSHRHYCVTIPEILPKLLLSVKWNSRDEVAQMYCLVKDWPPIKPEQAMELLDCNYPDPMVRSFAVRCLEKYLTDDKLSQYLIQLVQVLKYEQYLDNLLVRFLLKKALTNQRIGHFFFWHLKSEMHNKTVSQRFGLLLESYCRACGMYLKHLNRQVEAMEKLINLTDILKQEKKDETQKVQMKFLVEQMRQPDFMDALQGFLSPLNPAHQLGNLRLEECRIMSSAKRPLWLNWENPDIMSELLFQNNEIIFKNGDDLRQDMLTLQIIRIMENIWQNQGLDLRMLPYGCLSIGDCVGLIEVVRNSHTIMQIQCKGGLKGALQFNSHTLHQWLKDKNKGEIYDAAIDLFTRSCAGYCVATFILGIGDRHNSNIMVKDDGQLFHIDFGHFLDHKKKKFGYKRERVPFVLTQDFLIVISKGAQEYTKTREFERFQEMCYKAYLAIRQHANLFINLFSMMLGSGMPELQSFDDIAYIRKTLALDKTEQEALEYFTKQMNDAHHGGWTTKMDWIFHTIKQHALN
row,IC50 [nM],SMILES
1,44,"Cc1nc(N)nc2c1cc(Br)c(=O)n2[C@H]1CC[C@H](O)CC1 [US8633204, 157]"
2,680,"Cc1nc(N)nc2c1cc(Br)c(=O)n2CC(C)(C)O [US8633204, 167]"
3,32,"Cc1nc(N)nc2c1cc(-c1cnn(C)c1)c(=O)n2C1CCCC1 [US8633204, 235]"

# The remaining lines, values behind:
row,SMILES,IC50 [nM]
1,"Cc1nc(N)nc2c1cc(-c1cccnc1N)c(=O)n2C1CCCC1 [US8633204, 125]",1430
2,"CCNc1nc(C)c2cc(-c3ccc(O)c(OC)c3)c(=O)n(C3CCCC3)c2n1 [US8633204, 136]",3.08
3,"CCNc1nc(C)c2cc(-c3cccc(O)c3)c(=O)n(C3CCCC3)c2n1 [US8633204, 144]",1.01
4,"Cc1nc(N)nc2c1cc(-c1cn[nH]c1)c(=O)n2C1CCC(=O)CC1 [US8633204, 176]",12
